From patent EP2045247B1, “Compounds for the inhibition of histone deacetylase” (NatureWise Biotech & Medicals Corporation, priority 2007, dated 2009)

Key:
[1] = test system: breast cancer MCF-7 cells; assay: Inhibition of growth and change of morphology of MCF-7 cells; type: cell-based, human; conditions: 2.5, 5, 7.5 and 10 µg/mL; for morphology of MCF-7 cells: 72 hours (Fig. 13(A), Fig. 14(A)); for growth of MCF-7 cancer cells: sodium butyrate 4mM, observed and counted after 72 hours (Fig. 13, Fig. 14)
Experimental: The breast cancer MCF-7 cells, were cultured in Dulbecco's modified Eagle's medium (DMEM; Gibco) supplemented with penicillin G, streptomycin sulphate, 0.5 mM of L-glutamine and 10% fetal bovine serum (FBS; Gibco) at 37 °C, 5% CO2 and 95% relative humidity. The cells were seeded at a density of 3×10^5 per well of 6-well plates. After 24 hours, the cells were treated with different concentrations of compound NBM-HD-1 and 4mM sodium butyrate being used as the positive control. The cells were observed after 48 hours and counted after 96 hours. […] In Fig. 8(A), after the cells were incubated with 2.5 µg/mL (Fig. 8(A)-b), 5 µg/mL (Fig. 8(A)-c) and 10 µg/mL (Fig. 8(A)-d) of NBM-HD-1 for 48 hours, the density of MCF-7 cells reduced dramatically in comparison with that of the control group (Fig. 8(A)-a). The morphology of the MCF-7 cells in the experimental group changed in comparison with that in the control group. […] The results of the cell counting (FIG. 8(B)) indicate that, similar to sodium butyrate, NBM-HD-1 inhibits cell growth.
MCF-7 cancer cells were seeded at a density of 3×10^5 per well in 6-well plates. After 24 hours, the cells were treated with different concentrations of compound NBM-HD-2 and 4mM sodium butyrate being used as the positive control. The cells were observed and counted after 72 hours. […] In Fig. 13(A), after the cells were incubated with 2.5 µg/mL (Fig. 13(A)-c), 5 µg/mL (Fig. 13(A)-d), 7.5 µg/mL (Fig. 13(A)-e) and 10 µg/mL (Fig. 13(A)-f) of NBM-HD-2 for 72 hours, the density of MCF-7 cells reduced dramatically in comparison with that of the control group (Fig. 13(A)-a). The morphology of the MCF-7 cells in the experimental group changed in comparison with that in the control group.
MCF-7 cancer cells were seeded at a density of 3×10^5 per well of 6-well plates. After 24 hours, the cells were treated with different concentrations of compound NBM-HD-3 and 4mM sodium butyrate, which was being used as the positive control. The cells were observed and counted after 72 hours. […] In Fig. 14(A), after the cells were incubated with 2.5 µg/mL (Fig. 14(A)-c), 5 µg/mL (Fig. 14(A)-d), 7.5 µg/mL (Fig. 14(A)-e) and 10 µg/mL (Fig. 14(A)-f) of NBM-HD-3 for 72 hours, the density of MCF-7 cells reduced dramatically in comparison with that of the control group (Fig. 14(A)-a). The morphology of the MCF-7 cells in the experimental group changed in comparison with that in the control group. […] The results of the cell counting (FIG. 14(B)) indicate that, similar to sodium butyrate, NBM-HD-3 inhibits cell growth.

[2] = test system: human giloblastoma DBTRG-05MG cancer cells; assay: Inhibition of growth and change of morphology of DBTRG-05MG cells; type: cell-based; conditions: NBM-HD-1 2.5, 5 and 10 µg/mL, sodium butyrate 4 mM; 72 hours; density and cell counting (Fig. 7)
Experimental: The human giloblastoma DBTRG-05MG cancer cells were cultured in RPMI medium 1640 (Gibco) supplemented with penicillin G, streptomycin sulphate, 0.5 mM of L-glutamine and 10% fetal bovine serum (FBS; Gibco), 100mh/L sodium pyruvate (Gibco), and 1% NEAA (Gibco) at 37 °C, 5% CO2 and 95% relative humidity. For these experiments, the cells were seeded at a density of 3×10^5 per well of 6-well plates. After 24 hours, the cells were treated with different concentrations of NBM-HD-1 and 4 mM sodium butyrate. The cells were observed and counted after 72 hours. […] In 05MG cells (Fig. 7(A)), after incubation with 2.5 µg/mL (Fig. 7(A)-b), 5 µg/mL (Fig. 7(A)-c) and 10 µg/mL (Fig.7(A)-d) of NBM-HD-1 for 72 hours, the density of the cells reduced dramatically in comparison with that of the control group (Fig. 7(A)-a). The 05MG cells in the experimental group also changed to become longer than those in the control group.

acetylated histone H4 = assay: Western blotting of hyperacetylated histone H4 in C6 glioma cell lysates; type: cell-based, rat; conditions: C6 glioma cells
Experimental: Accumulation of hyperacetylated histone H4 was analyzed in the cell lysates by using Western Blotting and the antibody directed against acetylated histone H4 (Upstate). The C6 glioma cells were seeded at a density of 1×10^6 per 10cm culture dish. After 24 hours, the cells were treated with 10 µg/mL of NBM-HD-1 or 4mM sodium butyrate for several hours. The whole-cell lysates were prepared by using denaturing SDS sample buffer and then separated on 15% SDS-polyacrylamide gels. […] The amount of acetylated histones was hardly detectable in untreated C6 glioma cells. The amount of acetylated histone H4 of the cells treated with 4mM sodium butyrate for 2 hours increased. Sodium butyrate was then removed from the culture medium. After 6 hours, the amount of acetylated histone H4 decreased. The accumulation of acetylated histone H4 increased in the cells treated with NBM-HD-1 for 2 hours. […] The highest histone acetylation appeared at 6 hours after the compound had been removed. […] Because NBM-HD-1 is more hydrophobic than sodium butyrate, NBM-HD-1 can be retained in the cells longer than sodium butyrate and continuously induce the acetylation of histone H4.

SMILES: COc1cc2c(c(O)c1CC=C(C)C)C(=O)C[C@@H](c1ccc(OC)c(OC)c1C/C=C(\C)CCCC(C)(C)O)O2 [NBM-HD-2]
- morphology of MCF-7 cells [1]: change their morphology
- growth of MCF-7 cancer cells [1]: can inhibit the growth of MCF-7 cancer cells in a dose-dependent manner

SMILES: COc1cc2c(c(O)c1CCC(C)(C)O)C(=O)C[C@@H](c1ccc(OC)c(OC)c1C/C=C(\C)CCCC(C)(C)O)O2 [NBM-HD-3]
- morphology of MCF-7 cells [1]: change their morphology
- growth of MCF-7 cancer cells [1]: can inhibit the growth of MCF-7 cancer cells in a dose-dependent manner

SMILES: CCCC(=O)[O-].[Na+] [sodium butyrate, reference compound]
- growth of 05MG cells [2]: could inhibit the proliferation of 05MG cancer cells
- accumulation of acetylated histone H4, treated for 2 hours (acetylated histone H4; 10 µg/mL NBM-HD-1 or 4mM sodium butyrate, 2 hours (Fig. 5)): increased
- amount of acetylated histone H4 after removal of the compound from the culture medium (acetylated histone H4; up to 6 hours after removal (Fig. 5)): decreased
